Data taken from PMC11480511 (Scientific Reports, 2024).
Values after ≈ are worked out from the molar mass of the structure shown. Read-outs that look alike come from different tables or passages of the source.

Experiments:
[1] = test system: HOP-92; experiment: NCI single-dose growth inhibition screen; type: cell-based; details: Homo sapiens; Non-Small Cell Lung Cancer HOP-92; single dose 10^−5 M
[2] = test system: NCI-H322M; experiment: NCI single-dose growth inhibition screen; type: cell-based; details: Homo sapiens; Non-Small Cell Lung Cancer NCI-H322M; single dose 10^−5 M
[3] = test system: SNB-19; experiment: NCI single-dose growth inhibition screen; type: cell-based; details: Homo sapiens; CNS Cancer SNB-19; single dose 10^−5 M
[4] = test system: A549/ATCC; experiment: NCI single-dose growth inhibition screen; type: cell-based; details: Homo sapiens; Non-Small Cell Lung Cancer A549/ATCC; single dose 10^−5 M
[5] = test system: T-47D; experiment: NCI single-dose growth inhibition screen; type: cell-based; details: Homo sapiens, T47D; Breast Cancer T-47D; single dose 10^−5 M
[6] = test system: SK-MEL-2; experiment: NCI single-dose growth inhibition screen; type: cell-based; details: Homo sapiens; Melanoma SK-MEL-2; single dose 10^−5 M
[7] = test system: P. aeruginosa ATCC 27,853; experiment: Antibacterial screening, agar cup diffusion method; type: cell-based; details: Pseudomonas aeruginosa, ATCC27; Gram –ve strain; read-out: Minimum inhibitory concentrations (MIC, µM) P. aeruginosa ATCC 27,853
Description: (§1) Anti-bacterial activity of the recently synthesized compounds 3a-k was evaluated at AUMC (Assiut University Mycological Centre), Assiut, Egypt. Assays were done against Gram-negative strains of K. pneumoniae (ATCC 100310, E. coli (ATCC 25922), Pseudomonas aeruginosa (ATCC 27853) and the Gram-positive S. aureus (ATCC 6538) strain utilizing standard agar cup diffusion method. The isolates from the four bacterial species examined were kept in TSB (Trypticase Soya Broth, Becton and Dickinson) with 10% glycerol at -70 °C and then subcultured on TSA (Trypticase Soya Agar, Becton and Dickinson) and TSB for 24 h at 37 °C former to inoculation. Bacterial isolates were then plated on sterile petri plates with 1 × 10^8 CFU/mL (0.5 McFarland turbidity) and 20 mL of Mueller Hinton Agar media (Oxoid) was then loaded. To ensure that the microorganisms were evenly dispersed, the plates were gently rotated before being left to harden on a level surface. Four equally spaced spherical-shaped wells (10 mm diameter) were painstakingly drilled using a sterilized cork bore after media solidification. All tested compounds under test underwent two-fold serial dilutions in a sequential manner. Three replications of 100 µL of each concentration were added to a well using a micropipette. Plates were then incubated for 24-hour at 37 °C. The average of the inhibition zones was then calculated. To determine the MICs, the natural logarithm of each diluted test substance’s concentration was plotted against the average area of the related inhibition zone. Following that, a regression line was created and the intercept on the ‘ln concentration” axis was determined, and the antilogarithm was calculated to indicate the MIC value[34],[63].

[8] = test system: EKVX; experiment: NCI single-dose growth inhibition screen; type: cell-based; details: Homo sapiens; Non-Small Cell Lung Cancer EKVX; single dose 10^−5 M
[9] = test system: E. coli ATCC 25,922; experiment: Antibacterial screening, agar cup diffusion method; type: cell-based; details: read-out: Minimum inhibitory concentrations (MIC, µM) E. coli ATCC 25,922
Description: as §1

[10] = test system: UACC-257; experiment: NCI single-dose growth inhibition screen; type: cell-based; details: Homo sapiens; Melanoma UACC-257; single dose 10^−5 M
[11] = test system: S. aureus ATCC 6538; experiment: Antibacterial screening, agar cup diffusion method; type: cell-based; details: Staphylococcus aureus, ATCC6538; Gram + ve strain; read-out: Minimum inhibitory concentrations (MIC, µM) S. aureus ATCC 6538
Description: as §1

[12] = test system: NCI-H460; experiment: NCI single-dose growth inhibition screen; type: cell-based; details: Homo sapiens; Non-Small Cell Lung Cancer NCI-H460; single dose 10^−5 M
[13] = test system: OVCAR-4; experiment: NCI single-dose growth inhibition screen; type: cell-based; details: Homo sapiens; Ovarian Cancer OVCAR-4; single dose 10^−5 M
[14] = test system: HL-60(TB); experiment: NCI single-dose growth inhibition screen; type: cell-based; details: Homo sapiens; Leukemia HL-60(TB); single dose 10^−5 M
[15] = test system: CCRF-CEM; experiment: NCI single-dose growth inhibition screen; type: cell-based; details: Homo sapiens; Leukemia CCRF-CEM; single dose 10^−5 M
[16] = test system: UO-31; experiment: NCI single-dose growth inhibition screen; type: cell-based, human; details: Homo sapiens, UO-31, Renal Cancer UO-31; single dose 10^−5 M
[17] = test system: TK-10; experiment: NCI single-dose growth inhibition screen; type: cell-based; details: Homo sapiens; Renal Cancer TK-10; single dose 10^−5 M
[18] = test system: BT-549; experiment: NCI single-dose growth inhibition screen; type: cell-based; details: Homo sapiens; Breast Cancer BT-549; single dose 10^−5 M
[19] = test system: SF-539; experiment: NCI single-dose growth inhibition screen; type: cell-based; details: Homo sapiens; CNS Cancer SF-539; single dose 10^−5 M
[20] = test system: HS 578T; experiment: NCI single-dose growth inhibition screen; type: cell-based; details: Homo sapiens; Breast Cancer HS 578T; single dose 10^−5 M
[21] = test system: A498; experiment: NCI single-dose growth inhibition screen; type: cell-based, human; details: single dose 10^−5 M; for inhibition at 10 µM: Homo sapiens, A498, Renal Cancer A498
[22] = test system: MOLT-4; experiment: NCI single-dose growth inhibition screen; type: cell-based; details: Homo sapiens; Leukemia MOLT-4; single dose 10^−5 M
[23] = test system: MALME-3 M; experiment: NCI single-dose growth inhibition screen; type: cell-based; details: Homo sapiens; Melanoma MALME-3 M; single dose 10^−5 M
[24] = test system: HOP-62; experiment: NCI single-dose growth inhibition screen; type: cell-based; details: Homo sapiens; Non-Small Cell Lung Cancer HOP-62; single dose 10^−5 M
[25] = test system: SR; experiment: NCI single-dose growth inhibition screen; type: cell-based; details: Homo sapiens; Leukemia SR; single dose 10^−5 M
[26] = test system: IGROV1; experiment: NCI single-dose growth inhibition screen; type: cell-based; details: Homo sapiens, IGROV-1; Ovarian Cancer IGROV1; single dose 10^−5 M
[27] = test system: MDA-MB231; experiment: NCI single-dose growth inhibition screen; type: cell-based; details: Homo sapiens, MDA-MB-231; Breast Cancer MDA-MB231; single dose 10^−5 M
[28] = test system: NCI-H23; experiment: NCI single-dose growth inhibition screen; type: cell-based; details: Homo sapiens; Non-Small Cell Lung Cancer NCI-H23; single dose 10^−5 M
[29] = test system: PC-3; experiment: NCI single-dose growth inhibition screen; type: cell-based; details: Homo sapiens; Prostate Cancer PC-3; single dose 10^−5 M
[30] = test system: MCF7; experiment: NCI single-dose growth inhibition screen; type: cell-based, human; details: single dose 10^−5 M; for inhibition at 10 µM: Homo sapiens, MCF7, Breast Cancer MCF7
[31] = test system: SK-MEL-5; experiment: NCI single-dose growth inhibition screen; type: cell-based, human; details: single dose 10^−5 M; for inhibition at 10 µM: Homo sapiens, SK-MEL-5, Melanoma SK-MEL-5
[32] = test system: SF-268; experiment: NCI single-dose growth inhibition screen; type: cell-based; details: Homo sapiens; CNS Cancer SF-268; single dose 10^−5 M
[33] = test system: SK-MEL-28; experiment: NCI single-dose growth inhibition screen; type: cell-based; details: Homo sapiens; Melanoma SK-MEL-28; single dose 10^−5 M
[34] = Escherichia coli, ATCC25, Gram –ve strain

Row | SMILES | inhibition at 10 µM [1] | inhibition at 10 µM [2] | inhibition at 10 µM [3] | inhibition at 10 µM [4] | inhibition at 10 µM [5] | inhibition at 10 µM [6] | MIC [7] | inhibition at 10 µM [8] | MIC [9, 34] | MIC ([9]; Gram –ve strain) | inhibition at 10 µM [10] | MIC [11] | inhibition at 10 µM [12] | inhibition at 10 µM [13] | inhibition at 10 µM [14] | inhibition at 10 µM [15] | inhibition at 10 µM [16] | inhibition at 10 µM [17] | inhibition at 10 µM [18] | inhibition at 10 µM [19] | further results
1 | COc1ccc(C=C2SC(=O)N(CCCC(=O)N3CCN(c4cc5c(cc4F)c(=O)c(C(=O)O)cn5C4CC4)CC3)C2=O)cc1 [3e, 1-cyclopropyl-6-fluoro-7-[4-[4-[5-[(4-methoxyphenyl)methylene]-2,4-dioxo-thiazolidin-3-yl]butanoyl]piperazin-1-yl]-4-oxoquinoline-3-carboxylic acid] | 8.3% | 6% | 3.8% | 7.9% | 0.6% | 6.5% | > 20 µM | 0.4% | 1.94 to 2.6 µM (≈ 1.23 to 1.65 µg/mL) | 1.94 µM (≈ 1.23 µg/mL) | 19.7% | > 20 µM | 0% | < 0% | < 0% | < 0% | 18.5% | 11.3% | 10.3% | 6.5% | inhibition at 10 µM [20]: 2.4%; inhibition at 10 µM [21]: 32%; inhibition at 10 µM [22]: < 0%; inhibition at 10 µM [23]: 2.9%; inhibition at 10 µM [24]: < 0%; inhibition at 10 µM [25]: 4.3%; inhibition at 10 µM [26]: < 0%; inhibition at 10 µM [27]: 12.4%; inhibition at 10 µM [28]: 2.6%; inhibition at 10 µM [29]: < 0%; inhibition at 10 µM [30]: < 0%; inhibition at 10 µM [31]: 3.9%; inhibition at 10 µM [32]: 2.3%; inhibition at 10 µM [33]: < 0%
2 | O=C(O)c1cn(C2CC2)c2cc(N3CCN(C(=O)CCCN4C(=O)SC(=Cc5cccc6ccccc56)C4=O)CC3)c(F)cc2c1=O [3j, 1-cyclopropyl-6-fluoro-7-[4-[4-[5-(1-naphthylmethylene)-2,4-dioxo-thiazolidin-3-yl]butanoyl]piperazin-1-yl]-4-oxo-quinoline-3-carboxylic acid] | 13.3% | 26.6% | 20.1% | 9.3% | 7.5% | < 0% | > 20 µM | 9.1% | 1.94 to 2.6 µM (≈ 1.27 to 1.7 µg/mL) | 2.60 µM (≈ 1.7 µg/mL) | 19.1% | > 20 µM | 3.9% | 16.4% | < 0% | < 0% | 48.1% | < 0% | 20.5% | 9.9% | inhibition at 10 µM [20]: 30.2%; inhibition at 10 µM [21]: 50.9%; Growth Inhibition (%) ([21]; Renal Cancer A498): 50.9%; inhibition at 10 µM [22]: 17.5%; inhibition at 10 µM [23]: 13.1%; inhibition at 10 µM [24]: 15.1%; inhibition at 10 µM [25]: 14.1%; inhibition at 10 µM [26]: 25.9%; inhibition at 10 µM [27]: 25.2%; inhibition at 10 µM [28]: 13.1%; inhibition at 10 µM [29]: < 0%; Growth Inhibition (%) ([30]; Breast Cancer MCF7): 41.7%; inhibition at 10 µM [30]: 41.7%; inhibition at 10 µM [31]: 46.1%; Growth Inhibition (%) ([31]; Melanoma SK-MEL-5): 46.1%; inhibition at 10 µM [32]: 29.1%; inhibition at 10 µM [33]: 4.5%
